Data reported in paper PMC7411887, “New Paracyclophanylthiazoles with Anti-Leukemia Activity: Design, Synthesis, Molecular Docking, and Mechanistic Studies” (Molecules, 2020).

Legend:
SR cancer cell line = assay: Mitochondrial membrane potential assay; type: cell-based, human
ROS in SR cells = assay: Mitochondrial production of ROS; type: cell-based, human; conditions: 30 min at 37 °C
Description: Mitochondria play an essential role in the propagation of apoptosis. It is reported that, at an early stage, apoptotic stimuli are capable of modifying the mitochondrial transmembrane potential (Δψmt). Δψmt was recorded by the fluorescence of the dye JC-1.20. […] . The disruption of Δψmt is associated with the appearance of annexin V positivity in the treated cells when they are in an early apoptotic stage. It is documented that the dissipation of Δψmt is characteristic of apoptosis, and this was indicated with both microtubule-stabilizing and -destabilizing agents in different cell types. […] Mitochondrial membrane depolarization is associated with mitochondrial production of ROS [35]. Therefore, we investigated whether ROS production increased after treatment with the test compounds.
Figure 13 Mitochondrial production of ROS in SR cells with 3a and colchicine reference compared to control. […]
5. Adjust the cell concentration so at least 1 x10^4 cells should be analyzed per experimental condition. […] Mean fluorescence intensity in Ex/Em = 495/529 nm can be quantified and compared between untreated cells and cells treated with test compounds, or between different cell types. […]
4. For adherent cells: remove the ROS Label, add 100 μl of ROS Assay Buffer or PBS and measure fluorescence immediately, or treat the cells with 100 μL of diluted test compound(s) for desired period of time. […]

Row | Structure (SMILES) | mitochondrial membrane potential % Live cells (SR cancer cell line) [%] | mitochondrial membrane potential ΔΨm % Apoptic cells (SR cancer cell line) [%] | shift in fluorescence (Δψmt) compared with control cells (SR cancer cell line) | ROS % of control (ROS in SR cells) [%]
1 | COc1cc2c(c(OC)c1OC)-c1ccc(OC)c(=O)cc1[C@@H](NC(C)=O)CC2 [Colchicine, colchicine, reference compound] | 65.04 | 34.96 | significant results | 96.18
2 | COC(=O)C=C1SC(=NNC(=O)c2cc3ccc2CCc2ccc(cc2)CC3)N(c2ccccc2)C1=O [Compound 3a] | 68.8 | 31.2 | non-significant shift | 112.10
